According to US20060247261A1 (priority 2002, published 2006):

Target: T1, human cannabinoid CB2 receptor (Homo sapiens, UniProt P34972)
T1 construct: expressed in transfected cells; host or cells: Saccharomyces cerevisiae strain MMY23 (expresses a chimeric Gpa1/human Galpha-i3 G-protein alpha subunit)
Assay: Cannabinoid CB2 receptor agonist activity, yeast reporter assay
Format: cell-based
Settings: for Emax: read-out: efficacy (Emax) at the cloned human cannabinoid CB2 receptor
In short: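 Agonism read in S. cerevisiae strain MMY23 with the human CB2 receptor integrated at ura3 under the GPD promoter, coupled through a Gpa1/human Gαi3 C-terminal chimeric G-alpha. Compounds were added in DMSO (1% final). Fluorescence versus concentration was fitted by four-parameter fit to give a concentration effect value.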

T1 sequence (P34972 whole entry): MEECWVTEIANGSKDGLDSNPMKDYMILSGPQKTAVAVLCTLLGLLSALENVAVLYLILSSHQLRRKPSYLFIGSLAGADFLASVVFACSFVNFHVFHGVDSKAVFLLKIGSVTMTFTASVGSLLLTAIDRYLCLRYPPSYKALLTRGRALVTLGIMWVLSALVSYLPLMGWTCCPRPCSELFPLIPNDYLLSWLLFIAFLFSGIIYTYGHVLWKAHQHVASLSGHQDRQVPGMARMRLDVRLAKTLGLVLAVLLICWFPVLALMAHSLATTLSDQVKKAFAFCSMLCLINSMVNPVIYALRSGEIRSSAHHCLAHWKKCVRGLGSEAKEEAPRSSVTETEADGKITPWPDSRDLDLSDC

activity in the CB2 assay (in words) (CB2 assay described herein) | SMILES | EC50 | Emax
 | O=C(NCc1ccnc(F)c1)c1cnc(Nc2cccc(F)c2)nc1C(F)(F)F [Example 89, 2-(3-Fluoro-phenylamino)-4-trifluoromethyl-pyrimidine-5-carboxylic acid (2-fluoro-pyridin-4-ylmethyl)-amide] | 20 to 1000 nM | > 50%
 | COc1ccc(Nc2ncc(C(=O)NCc3ccccc3)c(C(F)(F)F)n2)cc1 [Example 46, 2-(4-Methoxy-phenylamino)-4-trifluoromethyl-pyrimidine-5-carboxylic acid N-benzylamide] | > 1000 nM | < 50%
inactive | CN(Cc1ccccc1)C(=O)c1cnc(Nc2ccc(C(C)(C)C)cc2)nc1C(F)(F)F [2-(4-tert-butyl-phenylamino)-4-trifluoromethyl-pyrimidine-5-carboxylic acid benzyl-methyl-amide] |  | 
 | CN(Cc1ccccc1)C(=O)c1cnc(Nc2ccc(Cl)c(Cl)c2)nc1C(F)(F)F [Example 55, 2-(3,4-Dichloro-phenylamino)-4-trifluoromethyl-pyrimidine-5-carboxylic acid N-benzyl-N-methyl-amide] | > 1000 nM | < 50%
 | COc1ccc(Nc2ncc(C(=O)N(C)Cc3ccccc3)c(C(F)(F)F)n2)cc1 [Example 47, 2-(4-Methoxy-phenylamino)-4-trifluoromethyl-pyrimidine-5-carboxylic acid N-benzyl-N-methyl-amide] | > 1000 nM | < 50%
 | CN(Cc1ccccc1)C(=O)c1cnc(Nc2ccc(C#N)cc2)nc1C(F)(F)F [Example 49, 2-(4-Cyano-phenylamino)-4-trifluoromethyl-pyrimidine-5-carboxylic acid N-benzyl-N-methyl-amide] | > 1000 nM | < 50%
 | O=C(NCc1ccnc(F)c1)c1cnc(Nc2cccc(Cl)c2)nc1C(F)(F)F [Example 29, 2-(3-Chloro-phenylamino)-4-trifluoromethyl-pyrimidine-5-carboxylic acid (2-fluoro-pyridin-4-ylmethyl)-amide] | 20 to 1000 nM | > 50%
 | N#Cc1ccc(Nc2ncc(C(=O)NCc3ccc(F)cc3)c(C(F)(F)F)n2)cc1Cl [Example 86, 2-(3-Chloro-4-cyano-phenylamino)-4-trifluoromethyl-pyrimidine-5-carboxylic acid 4-fluoro-benzylamide] | 20 to 1000 nM | > 50%
 | O=C(NCc1ccccc1)c1cnc(Nc2ccc(Cl)cc2Cl)nc1C(F)(F)F [Example 8, 2-(2,4-Dichlorophenylamino)-4-trifluoromethyloyrimidine-5-carboxyllc acid benzyl-amide] | 20 to 1000 nM | > 50%
 | O=C(O)Cc1cccc(Nc2ncc(C(=O)NCc3ccc(F)cc3)c(C(F)(F)F)n2)c1 [Example 112, {3-[(4-Fluoro-benzylcarbamoyl)-trifluoromethyl-pyrimidin-2-ylamino]-phenyl}-acetic acid] | > 1000 nM | < 50%
 | O=C(NCc1ccc(F)cc1)c1cnc(Nc2cc(Cl)ccc2F)nc1C(F)(F)F [Example 84, 2-(5-Chloro-2-fluoro-phenylamino)-4-trifluoromethyl-pyrimidine-5-carboxylic acid 4-fluoro-benzylamide] | 20 to 1000 nM | > 50%
 | O=C(NCc1ccc(F)cc1)c1cnc(Nc2ccc(F)c(Cl)c2)nc1C(F)(F)F [Example 82, 2-(3-Chloro-4-fluoro-phenylamino)-4-trifluoromethyl-pyrimidine-5-carboxylic acid 4-fluoro-benzylamide] | 20 to 1000 nM | > 50%
 | N#Cc1ccc(CNC(=O)c2cnc(Nc3c(Cl)cccc3Cl)nc2C(F)(F)F)cc1 [Example 71, 2-(2,6-Dichloro-phenylamino)-4-trifluoroniethyl-pyrimidine-5-carboxylic acid N-(4-cyano-benzyl)amide] | > 1000 nM | < 50%
 | N#Cc1ccc(CNC(=O)c2cnc(Nc3cc(Cl)cc(Cl)c3)nc2C(F)(F)F)cc1 [Example 26, 2-(3,5-Dichlorophenylamino)-4-trifluoromethylpyrimidine-5-carboxylic acid 4-cyanobenzylamide] | 20 to 1000 nM | > 50%
 | O=C(NCc1ccnc(F)c1)c1cnc(Nc2cccc(Br)c2)nc1C(F)(F)F [Example 88, 2-(3-Bromo-phenylamino)-4-trifluoromethyl-pyrimidine-5-carboxylic acid (2-fluoro-pyridin4-ylmethyl)-amide] | 20 to 1000 nM | > 50%
 | N#Cc1cccc(Nc2ncc(C(=O)NCc3ccccc3)c(C(F)(F)F)n2)c1 [Example 97, 2-(3-Cyano-phenylamino)-4-trifluoromethyl-pyrimidine-5-carboxylic acid benzylamide] | 20 to 1000 nM | > 50%
 | O=C(NCc1ccccn1)c1cnc(Nc2cccc(Cl)c2)nc1C(F)(F)F [Example 59, 2-(3-Chloro-phenylamino)-4-trifluoromethyl-pyrimidine-5-carboxylic acid N-(pyridin-2-ylmethyl)-amide] | > 1000 nM | < 50%
 | O=C(NCc1ccncc1)c1cnc(Nc2c(Cl)cccc2Cl)nc1C(F)(F)F [Example 69, 2-(2,6-Dichloro-phenylamino)-4-trifluorometbyl-pyrimidine-5-carboxylic acid N-(pyridin-4-ylmethyl)-amide] | > 1000 nM | < 50%
 | O=C(NCc1ccnc(F)c1)c1cnc(Nc2cc(Cl)cc(Cl)c2)nc1C(F)(F)F [Example 91, 2-(3,5-Dichloro-phenylamino)-4-trifluoromethyl-pyrimidine-5-carboxylic acid (2-fluoro-pyridin-4-ylmethyl)-amide] | 20 to 1000 nM | > 50%
 | COc1ccc(CNC(=O)c2cnc(Nc3cccc(Cl)c3)nc2C(F)(F)F)cc1 [Example 4, 2-(3-Chlorophenylamino)-4-trifluoromethylpyrimidine-5-carboxylic acid 4-methoxybenzyl-amide] | 20 to 1000 nM | > 50%
 | O=C(NCc1ccccc1)c1cnc(Nc2cc(Cl)cc(Cl)c2)nc1C(F)(F)F [Example 11, 2-(3,5-Dichlorophenylamino)trifluoromethylpyrimidine-5-carboxylic acid benzyl-amide] | 20 to 1000 nM | > 50%
 | O=C(NCc1ccncc1)c1cnc(Nc2cccc(F)c2)nc1C(F)(F)F [Example 20, 2-(3-Fluorophenylamino)-4-trifluoromethylpyrimidine-5-carboxylic acid (pyridin-4-ylmethyl)amide] | 20 to 1000 nM | > 50%
 | O=C(NCc1cccc(Cl)c1)c1cnc(Nc2cccc(Cl)c2)nc1C(F)(F)F [Example 52, 2-(3-Chloro-phenylamino)-4-trifluoromethyl-pyrimidine-5-carboxylic acid N-(3-chlorobenzyl)amide] | > 1000 nM | < 50%
 | O=C(NCc1ccccc1)c1cnc(Nc2cc(Cl)ccc2Cl)nc1C(F)(F)F [Example 56, 2-(2,5-Dichloro-phenylamino)-4-trifluoromethyl-pyrimidine-5-carboxylic acid N-benzylamide] | > 1000 nM | < 50%
 | CC(C)(C)OC(=O)Nc1ccc(CNC(=O)c2cnc(Nc3cccc(Cl)c3)nc2C(F)(F)F)cc1 [Example 107] | > 1000 nM | < 50%
 | CN(Cc1ccccc1)C(=O)c1cnc(Nc2c(Cl)cccc2Cl)nc1C(F)(F)F [Example 10, 2-(2,6-Dichlorophenylamino)-4-trifluoromethylpyrimidine-5-carboxylic acid N-benzyl-N-methylamide] | 20 to 1000 nM | > 50%
 | O=C(NCc1ccnc(F)c1)c1cnc(Nc2cccc(Cl)c2Cl)nc1C(F)(F)F [Example 94, 2-(2,3-Dichloro-phenylamino)-4-trifluoromethyl-pyrimidine-5-carboxylic acid (2-fluoro-pyridin-4-ylmethyl)-amide] | 20 to 1000 nM | > 50%
 | O=C(NCc1ccnc(F)c1)c1cnc(Nc2cc(Cl)ccc2Cl)nc1C(F)(F)F [Example 90, 2-(2,5-Dichloro-phenylamino)-4-trifluoromethyl-pyrimidine-5-carboxylic acid (2-fluoro-pyridin-4-ylmethyl)-amide] | 20 to 1000 nM | > 50%
 | O=C(NCc1ccc(F)cc1)c1cnc(Nc2cc(Cl)cc(Cl)c2)nc1C(F)(F)F [Example 25, 2-(3,5-Dichlorophenylamino)trifluoromethylpyrimidine-5-carboxylic acid 4-fluorobenzyl-amide] | 20 to 1000 nM | > 50%
